Measured values from patent publication US4801456A, “Growth hormone-releasing factor analogs” (International Minerals & Chemical Corp., priority 1987, dated 1989).
Square brackets hold non-standard residues; d marks the D form. Peptide text beside a SMILES is read from it. Nle = CCCC[C@H](N)C(=O)O

Test system: rat pituitary cells in tissue culture
Assay: Bioassay of hGRF analogs: GH release from cultured pituitary cells
Type: cell-based
Details: for Dose Needed to Release 2.01 μg/ml of GH (ED50 value for hGRF) / Maximum GH Released / Relative Maximum Activity (% of hGRF): from curves generated by ALLFIT; for GH release at dosages comparable to native hGRF: referring to Table 1; for Potency: (ED50 of hGRF)/(Dose required to give same response as ED50 of hGRF): relative to hGRF(1-44)-NH2 = 100
Excerpt: The assay for biological activity, which is based on the ability to stimulate release of growth hormone in rat pituitary cells in tissue culture, has been described in detail (Culler, M. D.; Kenjo, T.: Obara, N.; Arimuar, A., Stimulation of cAMP. Accumulation by Human Pancreatic GH-Releasing Factor-(1-44). Am. J. Physiol. 1984, 247 (Endocrinol.Metab.10), E609-E615.
ALLFIT, the 4-parameter logistic curve fitting program available from the Biomedical Computer Technology Information Center, Vanderbilt Medical Center, Nashville TN, was used to determine ED50 and maximal stimulated values from the data. In several instances, the amount of GH released reached a maximum value and decreased with further increasing doses of the hGRF analogs. To simplify the data analysis, these values were not used in the calculations. The calculated maximal responses, the doses of the analog required to release the amount of GH released at the ED50 of the standard (hGRF) and the potencies of the analogs relative to hGRF, are given in Table 2. Generally all novel analogs were fully active and were able to stimulate the release of growth hormone with maximal values of GH release being within 80% of the value for natural hGRF.

Structure (SMILES)	GH Released (mean ± (S.E.)) (Dose 1 × 10^-6 M)	GH Released (mean ± (S.E.)) (Dose 1 × 10^-7 M)	GH Released (mean ± (S.E.)) (Dose 1 × 10^-8 M)	GH Released (mean ± (S.E.)) (Dose 1 × 10^-9 M)	GH Released (mean ± (S.E.)) (Dose 1 × 10^-10 M)	GH Released (mean ± (S.E.)) (Dose 1 × 10^-11 M)	Dose Needed to Release 2.01 μg/ml of GH (ED50 value for hGRF)	Maximum GH Released	Relative Maximum Activity (% of hGRF)	GH release at dosages comparable to native hGRF	Potency: (ED50 of hGRF)/(Dose required to give same response as ED50 of hGRF)	Potency: (ED50 of hGRF)/(Dose required to give same response as ED50 of hGRF) (listed as [Asn^3,Asp^8,Asn^25,Nle^27 ]-hGRF(1-31)--NH2)	Potency: (ED50 of hGRF)/(Dose required to give same response as ED50 of hGRF) (listed as [Asn^3,Asp^8,Nle^27 ]-hGRF(1-31)--NH2)
CCCC[C@H](NC(=O)[C@@H](NC(=O)[C@H](CC(N)=O)NC(=O)[C@H](CCC(N)=O)NC(=O)[C@H](CC(C)C)NC(=O)[C@H](CC(C)C)NC(=O)[C@H](CCCCN)NC(=O)[C@H](CCCNC(=N)N)NC(=O)[C@H](C)NC(=O)[C@H](CO)NC(=O)[C@H](CC(C)C)NC(=O)[C@H](CCC(N)=O)NC(=O)CNC(=O)[C@H](CC(C)C)NC(=O)[C@@H](NC(=O)[C@H](CCCCN)NC(=O)[C@H](CCCNC(=N)N)NC(=O)[C@H](Cc1ccc(O)cc1)NC(=O)[C@H](CO)NC(=O)[C@H](CC(N)=O)NC(=O)[C@@H](NC(=O)[C@H](Cc1ccccc1)NC(=O)[C@@H](NC(=O)[C@H](C)NC(=O)[C@H](CC(N)=O)NC(=O)[C@H](C)NC(=O)[C@@H](N)Cc1ccc(O)cc1)[C@@H](C)CC)[C@@H](C)O)C(C)C)[C@@H](C)CC)C(=O)N[C@@H](CO)C(=O)N[C@@H](CCCNC(=N)N)C(=O)N[C@@H](CCC(N)=O)C(=O)N[C@@H](CCC(N)=O)C(N)=O [[Asn^3,Asn^25,Nle^27], [Asn^3,Asn^25,Nle^27]-hGRF(1-31)--NH2] (H-YANAIFTNSYRKVLGQLSARKLLQNI[Nle]SRQQ-NH2)	2.96 (0.11) μg/mL	3.30 (0.08) μg/mL	3.21 (0.13) μg/mL	1.58 (0.07) μg/mL	0.81 (0.06) μg/mL	0.65 (0.03) μg/mL	1.54 nM	3.33 µg/mL	101%	induced GH release in dosages comparable to those for native hGRF	21%	–	–
CCCC[C@H](NC(=O)[C@@H](NC(=O)[C@H](CC(N)=O)NC(=O)[C@H](CCC(N)=O)NC(=O)[C@H](CC(C)C)NC(=O)[C@H](CC(C)C)NC(=O)[C@H](CCCCN)NC(=O)[C@H](CCCNC(=N)N)NC(=O)[C@H](C)NC(=O)[C@H](CO)NC(=O)[C@H](CC(C)C)NC(=O)[C@H](CCC(N)=O)NC(=O)CNC(=O)[C@H](CC(C)C)NC(=O)[C@@H](NC(=O)[C@H](CCCCN)NC(=O)[C@H](CCCNC(=N)N)NC(=O)[C@H](Cc1ccc(O)cc1)NC(=O)[C@H](CO)NC(=O)[C@H](CC(=O)O)NC(=O)[C@@H](NC(=O)[C@H](Cc1ccccc1)NC(=O)[C@@H](NC(=O)[C@H](C)NC(=O)[C@H](CC(N)=O)NC(=O)[C@H](C)NC(=O)[C@@H](N)Cc1ccc(O)cc1)[C@@H](C)CC)[C@@H](C)O)C(C)C)[C@@H](C)CC)C(=O)N[C@@H](CO)C(=O)N[C@@H](CCCNC(=N)N)C(=O)N[C@@H](CCC(N)=O)C(=O)N[C@@H](CCC(N)=O)C(N)=O [[Asn^3,Asp^8,Asn^25,Nle^27], [Asn^3,Asp^8,Asn^25,Nle^27]-hGRF(1-31)--NH2] (H-YANAIFTDSYRKVLGQLSARKLLQNI[Nle]SRQQ-NH2)	3.12 (0.12) μg/mL	2.94 (0.11) μg/mL	1.88 (0.07) μg/mL	0.75 (0.01) μg/mL	0.61 (0.05) μg/mL	0.60 (0.02) μg/mL	12.05 nM	3.11 µg/mL	94%	did not induce GH release at dosages comparable to native hGRF	3%	5%	–
CCCC[C@H](NC(=O)[C@@H](NC(=O)[C@H](CC(=O)O)NC(=O)[C@H](CCC(N)=O)NC(=O)[C@H](CC(C)C)NC(=O)[C@H](CC(C)C)NC(=O)[C@H](CCCCN)NC(=O)[C@H](CCCNC(=N)N)NC(=O)[C@H](C)NC(=O)[C@H](CO)NC(=O)[C@H](CC(C)C)NC(=O)[C@H](CCC(N)=O)NC(=O)CNC(=O)[C@H](CC(C)C)NC(=O)[C@@H](NC(=O)[C@H](CCCCN)NC(=O)[C@H](CCCNC(=N)N)NC(=O)[C@H](Cc1ccc(O)cc1)NC(=O)[C@H](CO)NC(=O)[C@H](CC(=O)O)NC(=O)[C@@H](NC(=O)[C@H](Cc1ccccc1)NC(=O)[C@@H](NC(=O)[C@H](C)NC(=O)[C@H](CC(N)=O)NC(=O)[C@H](C)NC(=O)[C@@H](N)Cc1ccc(O)cc1)[C@@H](C)CC)[C@@H](C)O)C(C)C)[C@@H](C)CC)C(=O)N[C@@H](CO)C(=O)N[C@@H](CCCNC(=N)N)C(=O)N[C@@H](CCC(N)=O)C(=O)N[C@@H](CCC(N)=O)C(N)=O [[Asn^3,Asp^8,Nle^27], [Asn^3,Asp^8,Nle^27]-hGRF(1-31)--NH2] (H-YANAIFTDSYRKVLGQLSARKLLQDI[Nle]SRQQ-NH2)	2.74 (0.19) μg/mL	3.30 (0.27) μg/mL	2.27 (0.07) μg/mL	1.04 (0.05) μg/mL	0.58 (0.04) μg/mL	0.65 (0.04) μg/mL	6.74 nM	3.53 µg/mL	107%	did not induce GH release at dosages comparable to native hGRF	5%	–	3%
CCCC[C@H](NC(=O)[C@@H](NC(=O)[C@H](CC(=O)O)NC(=O)[C@H](CCC(N)=O)NC(=O)[C@H](CC(C)C)NC(=O)[C@H](CC(C)C)NC(=O)[C@H](CCCCN)NC(=O)[C@H](CCCNC(=N)N)NC(=O)[C@H](C)NC(=O)[C@H](CO)NC(=O)[C@H](CC(C)C)NC(=O)[C@H](CCC(N)=O)NC(=O)CNC(=O)[C@H](CC(C)C)NC(=O)[C@@H](NC(=O)[C@H](CCCCN)NC(=O)[C@H](CCCNC(=N)N)NC(=O)[C@H](Cc1ccc(O)cc1)NC(=O)[C@H](CO)NC(=O)[C@H](CC(N)=O)NC(=O)[C@@H](NC(=O)[C@H](Cc1ccccc1)NC(=O)[C@@H](NC(=O)[C@H](C)NC(=O)[C@H](CC(N)=O)NC(=O)[C@H](C)NC(=O)[C@@H](N)Cc1ccc(O)cc1)[C@@H](C)CC)[C@@H](C)O)C(C)C)[C@@H](C)CC)C(=O)N[C@@H](CO)C(=O)N[C@@H](CCCNC(=N)N)C(=O)N[C@@H](CCC(N)=O)C(=O)N[C@@H](CCC(N)=O)C(N)=O [[Asn^3,Nle^27], [Asn^3, Nle^27]-hGRF(1-31)--NH2] (H-YANAIFTNSYRKVLGQLSARKLLQDI[Nle]SRQQ-NH2)	3.22 (0.16) μg/mL	3.05 (0.09) μg/mL	2.90 (0.12) μg/mL	2.40 (0.06) μg/mL	0.97 (0.01) μg/mL	0.67 (0.08) μg/mL	0.58 nM	3.09 µg/mL	93%	induced GH release in dosages comparable to those for native hGRF	55%	–	–
